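Each compound was tested at five concentrations against cells in 96-well plates for 48 hours. GI50 marks 50% less growth. At the TGI there is no net growth.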
How the values were obtained:
Assay in all cases: DTP human tumour cell line panel, 48 h
[1] = system: 786-0 renal
[2] = system: A498 renal
[3] = system: A549 NSCLC
[4] = system: ACHN renal
[5] = system: BT-549 breast
[6] = system: CAKI-1 renal
[7] = system: CCRF-CEM leukemia
[8] = system: COLO 205 colon
[9] = system: DU-145 prostate
[10] = system: HCC-2998 colon
[11] = system: HCT-116 colon
[12] = system: HCT-15 colon
[13] = system: HL-60(TB) leukemia
[14] = system: HOP-62 NSCLC
[15] = system: HOP-92 NSCLC
[16] = system: HS 578T breast
[17] = system: HT29 colon
[18] = system: IGROV1 ovarian
[19] = system: K-562 leukemia
[20] = system: KM12 colon
[21] = system: LOX IMVI melanoma
[22] = system: M14 melanoma
[23] = system: MALME-3M melanoma
[24] = system: MCF7 breast
[25] = system: MDA-MB-231 breast
[26] = system: MDA-MB-435
[27] = system: MOLT-4 leukemia
[28] = system: NCI-H226 lung
[29] = system: NCI-H23 lung
[30] = system: NCI-H460 lung
[31] = system: NCI-H522 lung
[32] = system: NCI/ADR-RES ovarian
[33] = system: OVCAR-3 ovarian
[34] = system: OVCAR-4 ovarian
[35] = system: OVCAR-5 ovarian
[36] = system: OVCAR-8 ovarian
[37] = system: PC-3 prostate
[38] = system: RPMI-8226 leukemia
[39] = system: RXF 393 renal
[40] = system: SF-268 CNS
[41] = system: SF-295 CNS
[42] = system: SF-539 CNS
[43] = system: SK-MEL-2 melanoma
[44] = system: SK-MEL-28 melanoma
[45] = system: SK-MEL-5 melanoma
[46] = system: SK-OV-3 ovarian
[47] = system: SN12C renal
[48] = system: SNB-19 CNS
[49] = system: SNB-75 CNS
[50] = system: SR leukemia
[51] = system: SW-620 colon
[52] = system: T-47D breast
[53] = system: TK-10 renal
[54] = system: U251 CNS
[55] = system: UACC-257 melanoma
[56] = system: UACC-62 melanoma
[57] = system: UO-31 renal

COc1cc(-c2cc(/C=C3\C(=O)Nc4ccc(Cl)cc43)[nH]n2)cc(OC)c1OC gave a GI50 [1] of 15.2 µM, a TGI [1] greater than 100 µM and a GI50 [2] of 1070 nM. It also gave a TGI [2] of 7.24 µM, a GI50 [3] of 7.08 µM and a TGI [3] greater than 100 µM. For the same compound, the GI50 [4] was 3.46 µM, the TGI [4] was 15.2 µM and the GI50 [5] was 2520 nM. For the same compound, the TGI [5] was 7.16 µM, the GI50 [6] was 2820 nM and the TGI [6] was 20.5 µM. It also gave a GI50 [7] of 3.02 µM, a TGI [7] of 26.7 µM and a GI50 [8] of 2920 nM. The TGI [8] was 14.9 µM, the GI50 [9] was 9.54 µM and the TGI [9] was greater than 100 µM. It also gave a GI50 [10] of 64 µM, a TGI [10] greater than 100 µM and a GI50 [11] of 4.7 µM. The TGI [11] was 69.3 µM, the GI50 [12] was 3.6 µM and the TGI [12] was greater than 100 µM. It also gave a GI50 [13] of 2260 nM, a TGI [13] of 6.82 µM and a GI50 [14] of 5.14 µM. The TGI [14] was greater than 100 µM, the GI50 [15] was 1450 nM and the TGI [15] was 16.8 µM. It also gave a GI50 [16] of 5.03 µM, a TGI [16] greater than 100 µM and a GI50 [17] of 7.54 µM. The TGI [17] was 45.1 µM, the GI50 [18] was 6.34 µM and the TGI [18] was greater than 100 µM. The GI50 [19] was 4.05 µM, the TGI [19] was greater than 100 µM and the GI50 [20] was 3.3 µM. The TGI [20] was greater than 100 µM, the GI50 [21] was 3.45 µM and the TGI [21] was 22.7 µM. The GI50 [22] was 3.09 µM, the TGI [22] was 14 µM and the GI50 [23] was 2710 nM. The TGI [23] was 8.63 µM, the GI50 [24] was 3.15 µM and the TGI [24] was greater than 100 µM. It also gave a GI50 [25] of 4.41 µM, a TGI [25] greater than 100 µM and a GI50 [26] of 3.97 µM. For the same compound, the TGI [26] was greater than 100 µM, the GI50 [27] was 2700 nM and the TGI [27] was 8.87 µM. For the same compound, the GI50 [28] was 3.84 µM, the TGI [28] was 26.5 µM and the GI50 [29] was 4.95 µM. For the same compound, the TGI [29] was greater than 100 µM, the GI50 [30] was 5.03 µM and the TGI [30] was greater than 100 µM. The GI50 [31] was 3.12 µM, the TGI [31] was 14.5 µM and the GI50 [32] was 3.73 µM. The TGI [32] was greater than 100 µM, the GI50 [33] was 6.16 µM and the TGI [33] was 71.6 µM. For the same compound, the GI50 [34] was 5.11 µM, the TGI [34] was greater than 100 µM and the GI50 [35] was 27.9 µM. The TGI [35] was greater than 100 µM, the GI50 [36] was 4.31 µM and the TGI [36] was greater than 100 µM. The GI50 [37] was 2510 nM, the TGI [37] was 18.9 µM and the GI50 [38] was 1880 nM. It also gave a TGI [38] of 4.81 µM, a GI50 [39] of 9.21 µM and a TGI [39] greater than 100 µM. The GI50 [40] was 35.3 µM, the TGI [40] was greater than 100 µM and the GI50 [41] was 3.96 µM. It also gave a TGI [41] of 34.4 µM, a GI50 [42] of 6.7 µM and a TGI [42] of 26.3 µM. The GI50 [43] was 3.52 µM, the TGI [43] was 21 µM and the GI50 [44] was 7.37 µM. For the same compound, the TGI [44] was 72.4 µM, the GI50 [45] was 1460 nM and the TGI [45] was 3.22 µM. It also gave a GI50 [46] of 49.3 µM, a TGI [46] greater than 100 µM and a GI50 [47] of 5.72 µM. The TGI [47] was greater than 100 µM, the GI50 [48] was 5.04 µM and the TGI [48] was greater than 100 µM. For the same compound, the GI50 [49] was 3.44 µM, the TGI [49] was 27.9 µM and the GI50 [50] was 3.06 µM. It also gave a TGI [50] of 12.7 µM, a GI50 [51] of 6.1 µM and a TGI [51] greater than 100 µM. For the same compound, the GI50 [52] was 2600 nM, the TGI [52] was 18.3 µM and the GI50 [53] was 8.15 µM. The TGI [53] was 92.7 µM, the GI50 [54] was 5.37 µM and the TGI [54] was greater than 100 µM. The GI50 [55] was 2700 nM, the TGI [55] was 11.6 µM and the GI50 [56] was 1730 nM. It also gave a TGI [56] of 3.9 µM, a GI50 [57] of 2810 nM and a TGI [57] of 23.6 µM.
